Test results as given in US6916446B1, “Bioreactor method, apparatus and product thereby” (The United States of America as represented by the …, priority 2002, dated 2005).
Values joined by “and” are separate entries in the source; they are usually repeats but may differ in a detail not shown here. Equal values may be shown once. Read-outs that look alike come from different tables or passages of the source.

Columns and labels:
[1] = test system: strain IMB-1; assay: Batch oxidation of MeBr in bottles containing cell suspensions of strain IMB-1; type: cell-based, strain IMB-1 (ATCC 202197); design: MeBr Oxidation Rate per Cell: unit not given here; conditions: for CO2 Production Rate: corrected for respiration
[2] = 0 cells
[3] = test system: strain IMB-1; assay: Growth of strain IMB-1 on substrates in mineral salts medium (Balch tubes)
[4] = test system: strain IMB-1; assay: 14C-MeBr oxidation assay on washed cell suspensions; type: cell-based, strain IMB-1 (ATCC 202197); conditions: for MeBr oxidized: cells grown on the substrate indicated; for rate of MeBr oxidation, normalized for cell densities: cells grown on methylamine
[5] = test system: strain IMB-1; assay: Open-system bioreactor, 10 L growing culture, continuous supply of MeBr; type: cell-based, strain IMB-1 (ATCC 202197); conditions: in 15 days; 21.2 g/m^3 MeBr in air, 10 L culture
From the text: The bioreactor may be designed to maximize the rate of oxidation of methyl bromide, particularly when using strain IMB-1. For example, without limitation, a twelve (12)-liter fermenter may be used to grow 10-L of cells of IMB-1 in batch culture for flow-through. Preferably, the fermenter is used in continuous-flow mode to grow IMB-1 using 21.2 g/m^3 MeBr as the feedstock. Use of strain 1 IMB-1 in a bioreactor is used in the present invention to directly oxidize various concentrations of the methyl halide, preferably methyl bromide or methyl iodide, for example without limitation high concentrations of approximately 30,000 ppm or 125 g/m^3. Direct oxidation of methyl bromide is most preferred.
A closed-system bioreactor was built using the general design of FIG. 1 and employed for testing on a laboratory bench. The bioreactor was started with 0.5 L of growing culture of methylotrophic bacteria strain IMB-1 and removed MeBr at fumigation concentrations (>17 g/m^3) from re-circulating air. Strain IMB-1 grew to high cell densities (5×10^9 cells/cm^3) in the bioreactor within several days using pulsed additions of MeBr as the sole carbon and energy source. The addition of the MeBr was done as a gas. Bacterial oxidation of MeBr produced CO2 and hydrobromic acid (HBr) which could be neutralized by addition of NaOH. […]

[6] = test system: Bacillus anthracis (anthrax) and its spores; conditions: cited from earlier work
[7] = test system: strain IMB-1; assay: Closed-system re-circulating bioreactor with washed cell suspension of strain IMB-1; type: cell-based, strain IMB-1 (ATCC 202197)
Procedure: Procedures for forming the methylotrophic bacterium 18 within the bioreactor 10 include, for example and without limitation, strain IMB-1 being grown aerobically in batch mode using pulsed additions of MeBr for use as an inoculum for the bioreactor. Additions of MeBr from about 0.01 to about 0.1 g were made approximately daily for several weeks. Cells (1 L) were grown to elevated density (approximately 1.5×10^8 cells/cm^3) in stoppered, 2-L flasks with rotary shaking. Growth occurred in mineral salts media containing mono- and dibasic phosphate (ΣPO4^31 '=1.4 mM) as well as sulfate and trace minerals (see e.g. Schaefer, J. K. and R. S. Oremland, Oxidation of Methyl Halides by the Facultative Methylotroph Strain IMB-1. Appl. Environ. Microbiol. 65 (1999): pp 5035-5041) the disclosure of which is hereby incorporated by reference. Media concentrations were tripled in order to provide additional nutrients and buffer capacity. Cells were grown at about 28° C. Cells were washed and re-suspended to 0.5 L in fresh media and transferred to the gas-washing bottle of the bioreactor having an initial cell density approximately equal to 3×10^8 cells/cm^3. Once the methylotrophic bacterium 18 constitutes part of the biofilter 16, the methyl halide is pumped from the reservoir 14 to the biofilter 16 for direct oxidation.
The biofilter 16 includes a mass of methylotrophic bacteria 18 within a container for bio-degradation of the methyl halides 30. The biofilter 16 constitutes the active surface of the bioreactor 10. The initial cell density was 3×10^8 cells/cm^3. The peristaltic pump 12 was used to circulate the methyl halide 30 gas in this system at a flow rate of 0.2 liter/min through inert rubber tubing (Pharmed), manufactured by Cole Parmer of Vernon Hills, Ill., and having 0.4 cm I.D. Stainless steel tubing (0.4 cm I.D.) was used to connect the components of the bioreactor 10. Methane (CH4) was added (3.2 g/m^3) to serve as a control and an internal standard.
A closed-system bioreactor was built using the general design of FIG. 1 and employed for testing on a laboratory bench. The bioreactor was started with 0.5 L of growing culture of methylotrophic bacteria strain IMB-1 and removed MeBr at fumigation concentrations (>17 g/m^3) from re-circulating air. Strain IMB-1 grew to high cell densities (5×10^9 cells/cm^3) in the bioreactor within several days using pulsed additions of MeBr as the sole carbon and energy source. The addition of the MeBr was done as a gas. Bacterial oxidation of MeBr produced CO2 and hydrobromic acid (HBr) which could be neutralized by addition of NaOH. Strain IMB-1 was capable of sustained oxidation of large amounts of MeBr (16 g in 46 days). […] Oxidation of MeBr was unaffected by the presence of elevated dissolved solutes (>26 g/kg) that approached the salinity of seawater. Strain IMB-1 grown on MeBr was 7 times more efficient at removing MeBr from the headspace of flasks than cultures grown on glucose (55 vs. 8×10^−15 g MeBr/cell/hr, respectively). An open-system bioreactor having 10 L of growing culture used a continuous supply of MeBr (21.2 g/m^3 in air). Growth of strain IMB-1 was continuous and 80 g of MeBr was removed from the air supply in 15 days.

[8] = 3 × 10^7 cells/cm^3, 0.76 mg MeBr added
[9] = 3 × 10^7 cells/cm^3, 1.36 mg MeBr added
[10] = 3 × 10^7 cells/cm^3, 5.30 mg MeBr added
[11] = 3 × 10^8 cells/cm^3, 0.76 mg MeBr added
[12] = 3 × 10^8 cells/cm^3, 1.36 mg MeBr added
[13] = 3 × 10^8 cells/cm^3, 5.30 mg MeBr added
[14] = 3 × 10^9 cells/cm^3, 0.76 mg MeBr added
[15] = 3 × 10^9 cells/cm^3, 1.36 mg MeBr added
[16] = 3 × 10^9 cells/cm^3, 5.30 mg MeBr added
[17] = substrate as electron donor / carbon and energy source

SMILES: CBr [MeBr, methyl bromide]
- time to removal of MeBr ([1]; 0.76 mg (1.2 mM in the liquid), bottles containing 1.5×10^8 cells): ≤ 190 h
- time to removal of MeBr ([1]; 0.76 mg, bottles containing 10-fold more cells): ≤ 35 h
- time to removal of MeBr ([1]; 0.76 mg, bottles containing 100-fold more cells (3×10^9 cells/cm^3)): ≤ 2 h
- time to oxidation of MeBr ([1]; 1.2 mM in the liquid, cells grown on MeBr (2.8×10^8 cells)): within one hour
- time to remove a similar amount of MeBr ([1]; 1.2 mM in the liquid, glucose-grown cells (3.6×10^8 cells)): greater than 5 hours
- time to removal of MeBr ([1]; 1.36 mg MeBr, 3×10^9 cells/cm^3): ≤ 7 h
- MeBr Oxidation Rate [1, 8]: 0.063 mg/day
- MeBr Oxidation Rate Constant [1, 8]: 0.083 per d
- MeBr Oxidation Rate per Cell [1, 8]: 4.1 ×10^10
- CO2 Production Rate [1, 8]: 0.031 mg/day
- MeBr Oxidation Rate [1, 9]: 0 mg/day
- MeBr Oxidation Rate Constant [1, 9]: 0 per d
- MeBr Oxidation Rate per Cell [1, 9]: 0 ×10^10
- CO2 Production Rate [1, 9]: 0.002 mg/day
- MeBr Oxidation Rate [1, 10]: 0 mg/day
- MeBr Oxidation Rate Constant [1, 10]: 0 per d
- MeBr Oxidation Rate per Cell [1, 10]: 0 ×10^10
- CO2 Production Rate [1, 10]: 0 mg/day
- MeBr Oxidation Rate [1, 11]: 0.555 mg/day
- MeBr Oxidation Rate Constant [1, 11]: 0.73 per d
- MeBr Oxidation Rate per Cell [1, 11]: 3.7 ×10^10
- CO2 Production Rate [1, 11]: 0.224 mg/day
- MeBr Oxidation Rate [1, 12]: 0.180 mg/day
- MeBr Oxidation Rate Constant [1, 12]: 0.13 per d
- MeBr Oxidation Rate per Cell [1, 12]: 1.2 ×10^10
- CO2 Production Rate [1, 12]: 0.189 mg/day
- MeBr Oxidation Rate [1, 13]: 0 mg/day
- MeBr Oxidation Rate Constant [1, 13]: 0 per d
- MeBr Oxidation Rate per Cell [1, 13]: 0 ×10^10
- CO2 Production Rate [1, 13]: 0 mg/day
- MeBr Oxidation Rate [1, 14]: 6.53 mg/day
- MeBr Oxidation Rate Constant [1, 14]: 8.6 per d
- MeBr Oxidation Rate per Cell [1, 14]: 4.4 ×10^10
- CO2 Production Rate [1, 14]: 5.025 mg/day
- MeBr Oxidation Rate [1, 15]: 3.52 mg/day
- MeBr Oxidation Rate Constant [1, 15]: 2.59 per d
- MeBr Oxidation Rate per Cell [1, 15]: 2.3 ×10^10
- CO2 Production Rate [1, 15]: 1.990 mg/day
- MeBr Oxidation Rate [1, 16]: 6.07 mg/day
- MeBr Oxidation Rate Constant [1, 16]: 1.14 per d
- MeBr Oxidation Rate per Cell [1, 16]: 4.0 ×10^10
- CO2 Production Rate [1, 16]: 2.696 mg/day
- MeBr removal from the headspace of flasks per cell ([1]; cultures grown on glucose): 8 ×10^−15 g MeBr/cell/hr
- MeBr removal from the headspace of flasks per cell ([1]; strain IMB-1 grown on MeBr): 55 ×10^−15 g MeBr/cell/hr
- CO2 Production Rate ([2]; 0.76 mg MeBr added): 0 mg/day
- MeBr Oxidation Rate ([2]; 0.76 mg MeBr added): 0.029 mg/day
- CO2 Production Rate ([2]; 1.36 mg MeBr added): 0 mg/day
- MeBr Oxidation Rate ([2]; 1.36 mg MeBr added): 0.062 mg/day
- CO2 Production Rate ([2]; 5.30 mg MeBr added): 0 mg/day
- MeBr Oxidation Rate ([2]; 5.30 mg MeBr added): 0.208 mg/day
- growth of strain IMB-1 on the substrate (in words) [3, 17]: grow using MeBr as a sole source of carbon and energy
- MeBr oxidized [4]: 1.4 pmol/10^6 cells/h
- amount of MeBr removed from the air supply [5]: 80 g
- killing of B. anthracis and its spores ([6]; Kolb and Schneiter 1950): kill
- level at which methyl bromide functions as a microbicide and a pesticide ([6]; Schade and King 1977, tree nuts): about 25,000 ppm
- time to consumption of added MeBr ([7]; 0.21 g added MeBr, by the third day of operation): ≤ 4 h
- reduction of methyl bromide concentration during a single pass through the filter ([7]; after 2 weeks operation): up to 5 g/m^3
- time to removal of all added MeBr ([7]; after several equivalent additions of 9 g/m^3 MeBr): approximately 6 hours
- time to removal of added MeBr ([7]; first addition of 0.21 g MeBr): 24 h
- amount of MeBr oxidized ([7]; in 46 days, pulses of 0.21 g up to three times a day): 16 g and 16.2 g
- time to oxidation of initial levels of methyl bromide ([7]; initial 9 g/m^3, washed cell suspensions): ≤ 24 h

SMILES: CC(=O)O [acetate]
- growth of strain IMB-1 on the substrate (in words) [3]: grows

SMILES: O=C(O)CC(O)(CC(=O)O)C(=O)O [citrate]
- growth of strain IMB-1 on the substrate (in words) [3, 17]: no growth occurred

SMILES: CNC [dimethylamine]
- growth of strain IMB-1 on the substrate (in words) [3]: support growth

SMILES: O=CO [formate]
- growth of strain IMB-1 on the substrate (in words) [3]: no growth occurred

SMILES: O=C(O)/C=C/C(=O)O [fumarate]
- growth of strain IMB-1 on the substrate (in words) [3, 17]: no growth occurred

SMILES: O=C(O)CC(O)C(=O)O (stereo not shown) [malate]
- growth of strain IMB-1 on the substrate (in words) [3, 17]: weak growth

SMILES: C [methane]
- growth of strain IMB-1 on the substrate (in words) [3, 17]: no growth occurred

SMILES: CO [methanol]
- growth of strain IMB-1 on the substrate (in words) [3, 17]: no growth occurred

SMILES: CF [methyl fluoride]
- metabolized by strain IMB-1 [3]: not metabolized
- effect on uptake of MeBr or growth of IMB-1 on MeBr ([3]; 2-22 μmol/tube added): did not affect
- growth of strain IMB-1 on the substrate (in words) [3, 17]: no growth occurred
- MeBr oxidized [4]: 0.0 pmol/10^6 cells/h

SMILES: CI [methyl iodide]
- growth of strain IMB-1 on the substrate (in words) [3, 17]: Growth was also obtained
- rate of MeBr oxidation, normalized for cell densities ([4]; cultures incubated with 2 μmoles Mel): 1.4 pmol/10^6 cells/h
- rate of MeBr oxidation, normalized for cell densities ([4]; cultures incubated with 5 μmoles Mel): 1.1 pmol/10^6 cells/h
- rate of MeBr oxidation, normalized for cell densities ([4]; cultures incubated with 8 μmoles Mel): 1.1 pmol/10^6 cells/h
- rate of MeBr oxidation, normalized for cell densities ([4]; cultures incubated with 10 μmoles Mel): 1.4 pmol/10^6 cells/h
- MeBr oxidized [4]: 2.4 pmol/10^6 cells/h

SMILES: CN [monomethylamine]
- growth of strain IMB-1 on the substrate (in words) [3, 17]: support growth

SMILES: O=C(O)CCC(=O)O [succinate]
- growth of strain IMB-1 on the substrate (in words) [3, 17]: no growth occurred

SMILES: CN(C)C [trimethylamine]
- growth of strain IMB-1 on the substrate (in words) [3, 17]: support growth
